# Values quoted from earlier work as cited in patent US20240401150A1, “PANCREATIC DUCTAL ADENOCARCINOMA SIGNATURES AND USES THEREOF” (The Broad Institute, Inc., priority 2022, published 2024).
# Assays:
# CXCR4 = CXCR4 (Homo sapiens, UniProt P61073); settings: literature (ref 133)
# [1] = system: intra-tumoral cytotoxic T cells; settings: previously identified (refs 20, 61)
# Chain of CXCR4 (P61073 whole entry): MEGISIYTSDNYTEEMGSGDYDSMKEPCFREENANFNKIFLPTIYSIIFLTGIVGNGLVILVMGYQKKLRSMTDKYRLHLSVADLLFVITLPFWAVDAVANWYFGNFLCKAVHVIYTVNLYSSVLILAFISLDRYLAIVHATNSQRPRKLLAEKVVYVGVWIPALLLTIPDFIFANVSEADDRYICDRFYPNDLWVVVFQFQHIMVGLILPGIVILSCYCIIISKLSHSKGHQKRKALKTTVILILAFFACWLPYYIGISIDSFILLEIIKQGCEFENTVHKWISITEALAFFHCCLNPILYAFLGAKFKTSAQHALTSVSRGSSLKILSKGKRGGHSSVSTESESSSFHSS
Structure (SMILES),effect of clinical inhibition of CXCR4 (CXCR4),intra-tumoral cytotoxic T cell activity [1]
c1cc(CN2CCCNCCNCCCNCC2)ccc1CN1CCCNCCNCCCNCC1 [AMD3100],integrated immune response^133,
CCCCc1nc(Cl)c(CO)n1Cc1ccc(-c2ccccc2-c2nn[nH]n2)cc1 [losartan],,increase
